Reference: patent US7524851B2 (Robert Bosch Gesellschaft fur Medizinische Forschung (RBMF), priority 2003, dated 2009)

Columns and labels:
[1] = test system: primary CD4+ T lymphocytes; assay: Annexin V/propidium iodide FACS apoptosis of stimulated primary blood CD4+ T lymphocytes; format: cell-based, human; conditions: for apoptosis induction during the first 2 days after administration: kinetic studies; for apoptosis of primary blood CD4+ T lymphocytes: day 5
Text: Isolation of primary CD4^+ T lymphocytes and lamina propria cells: Human peripheral blood mononuclear cells (PBMCs) from healthy volunteers (25-42 years of age) and patients with Crohn's disease (31-65 years of age) were isolated using Ficoll-Hypaque gradients. PBMCs were further purified using CD4 monoclonal antibodies attached to immunomagnetic beads according to the manufacturer's protocol, followed by treatment with Detachabead (Dynal; Oslo, Norway). In some cases, CD4^+ T cells were further separated by negative selection techniques using CD45RO or CD45RA monoclonal antibodies (PharMingen; Heidelberg, Germany) and immunomagnetic beads (Dynal). […] Lamina propria mononuclear cells (LPMCs) from patients with IBD were isolated from gut specimens using a short-term (5-minute) digestion protocol with collagenase V, hyaluronidase (Sigma-Aldrich; St. Louis, Mo., USA), and DNase (Roche; Mannheim, Germany), as recently described in detail in Holtmann et al., Eur. J. Immunol. 32:3142-3151 (2002). Briefly, specimens were washed in calcium- and magnesium-free HBSS (HBSS-CMF), cut into 0.5-cm pieces, and incubated twice in HBSS containing EDTA (0.37 mg/ml) and DTT (0.145 mg/ml) at 37° C. for 15 minutes, followed by subsequent digestion for 5 minutes with collagenase V 400 (1 mg/ml), deoxyribonuclease (0.1 mg/ml DNase), and hyaloronidase (0.1 mg/ml) in a shaking incubator at 37° C. The digested tissue was washed twice in RPMI medium containing 10% FCS and centrifuged. The tissue was finally mechanically homogenized (DAKO homogenizer; Hamburg, Germany) for 4 minutes, and cells were filtered through a sterile 40-μm cell strainer (Falcon; San Diego, Calif., USA).
Such CD28 costimulation is known to prevent apoptosis of primary T cells during T cell receptor (TCR) stimulation through activation of bcl-x, and NF-κB (Noel et al., J. Immunol. 157:636-647 (1996); Radvanyi et al., J. Immunol. 156:1788-1798 (1996); Khoshnan et al., J. Immunol. 165:1743-1754 (2000)). […] In addition, recombinant IL-2 (R&D Systems; Wiesbaden, Germany) was used at a final concentration of 40 U/ml in all experiments. Lamina propria T lymphocytes were stimulated with antibodies to CD2 (4 μg/ml; Immunotech; Marseille, France) and CD28 (1 μg/ml). […] To block CD95L-mediated (FasL-mediated) apoptosis, the NOK-1 antibody (4 μg/ml, PharMingen) was used whose Fab fragments bind to human CD95L (FasL) (Jodo et al., J. Immunol. 165:5487-5494 (2000)). Recombinant human FasL (Alexis Biochemicals; Heidelberg, Germany) was used as a positive control for the NOK-1 antibody (10 μg/ml).
For FACS analysis, apoptotic cells were detected by staining with annexin V and propidium iodide using the Annexin V FITC Apoptosis Detection Kit I (PharMingen) (Atreya et al., Nat. Med. 6:583-588 (2000)). In brief, T cells were washed twice in PBS, and the pellet was resuspended in annexin V binding buffer (PharMingen) at a concentration of 10^6 cells per milliliter. Annexin V FITC and propidium iodide were added (5 ill of each per 10^5 cells). Samples were gently mixed and incubated for 15 minutes at room temperature in the dark before FACS analysis. To verify the results obtained with the annexin V/propidium iodide staining, analysis of T cells displaying DNA fragmentation was also determined by the Nicoletti technique, as described in (Nicoletti et al., J. Immunol. Methods 139:271-279 (1991)). 10^6 T cells were fixed in 70% ethanol, washed once in HBSS, resuspended in 1 ml of HBSS and 1 ml of phosphate citric acid buffer (0.2 mol/l Na2PO4 and 0.004 mol/l citric acid [pH 7.8]), and incubated at room temperature for 5 minutes. After centrifugation, cells were resuspended in 1 ml of HBSS containing 20 μg/ml propidium iodide and 10 U DNase-free RNase A and incubated at room temperature for 30 minutes. Finally, cells were analyzed on a FACScan flow cytometer. Because of the fragmentation of DNA, apoptotic cells appear as hypodiploid in the DNA histogram.

[2] = test system: peripheral blood CD4+ T cells; assay: Apoptotic blood T cells from IBD patients receiving azathioprine/6-MP; format: in vivo, human; conditions: for number of apoptotic blood T cells: treated IBD patients vs untreated patients before therapy, cells stimulated with CD28 in culture, P<0.05
Text: FIG. 3. […] (a) LPMCs were isolated and stimulated with anti-CD2/CD28 plus IL-2 in the presence or absence of 6-MP for 5 days followed by FACS analysis. […] Data represent mean values±SEM from eight patients with IBD per group. […] Data are representative of 5-13 patients per group. Magnification, ×20 (bar=100 μm) (ce) and ×40 (bar=50 μm) (f-h). (i) Quantification of the percentage of apoptotic, TUNEL-positive LPMCs in patients with IBD receiving 6-MP as compared with untreated control patients. […] Data are mean values±SEM of 5-13 patients per group.
Isolation of primary CD4^+ T lymphocytes and lamina propria cells: Human peripheral blood mononuclear cells (PBMCs) from healthy volunteers (25-42 years of age) and patients with Crohn's disease (31-65 years of age) were isolated using Ficoll-Hypaque gradients. PBMCs were further purified using CD4 monoclonal antibodies attached to immunomagnetic beads according to the manufacturer's protocol, followed by treatment with Detachabead (Dynal; Oslo, Norway). In some cases, CD4^+ T cells were further separated by negative selection techniques using CD45RO or CD45RA monoclonal antibodies (PharMingen; Heidelberg, Germany) and immunomagnetic beads (Dynal). […] Lamina propria mononuclear cells (LPMCs) from patients with IBD were isolated from gut specimens using a short-term (5-minute) digestion protocol with collagenase V, hyaluronidase (Sigma-Aldrich; St. Louis, Mo., USA), and DNase (Roche; Mannheim, Germany), as recently described in detail in Holtmann et al., Eur. J. Immunol. 32:3142-3151 (2002). […]
For FACS analysis, apoptotic cells were detected by staining with annexin V and propidium iodide using the Annexin V FITC Apoptosis Detection Kit I (PharMingen) (Atreya et al., Nat. Med. 6:583-588 (2000)). […]

Rac1 = Rac1 activation assay (GTP-bound Rac1, PAK pull-down); format: cell-based, human; conditions: primary T cells, 3 days
Method: (§1) Cell lysates were incubated with 10 μg/ml PAK-1 agarose (Rac assays) or 10 μg/mg Raf RBD agarose (Ras assay) for 60 minutes (Rac assays) or 30 minutes (Ras assays) at 4° C. Agarose beads were collected by centrifugation followed by denaturation, boiling of the samples, and SDS-PAGE analysis.

STAT-3 = assay: Rac1-bound STAT-3 (PAK pull-down, immunoblot); format: cell-based, human; conditions: primary T cells, 3 days
Method: FIG. 7. […] Purified CD4^+ T lymphocytes were stimulated with IL-2 and antibodies to CD3 or IL-2 plus antibodies to CD3 and CD28 for 3 days. […] GTP-bound Ras (Ras-GTP) was analyzed using Raf RGD to determine Ras activation. […] Similarly, Ras was obtained using Raf RGD agarose followed by analysis of [^3H]GTP-bound Ras by scintillation counting.
as §1

[3] = test system: primary CD4+ T lymphocytes; assay: Mitochondrial membrane potential (JC-1, FACS); conditions: 5 days
[4] = stimulated through the TCR/CD3 complex plus CD28
[5] = stimulated with anti-CD3 antibodies alone

SMILES | apoptosis induction during the first 2 days after administration [1] | apoptosis of primary blood CD4+ T lymphocytes [1, 4] | apoptosis of primary blood CD4+ T lymphocytes [1, 5] | further increase in percentage of apoptotic cells on additional 6-MP in vitro ([2]; T cells from 6-MP-treated patients) | number of apoptotic blood T cells [2] | CD28 costimulation induced Rac1 activation (GTP-bound Rac1) (Rac1) | Rac1-bound STAT-3 (STAT-3) | ΔΨm in primary T cells [3] | concentration at which T cell apoptosis occurred ([1]; FIGS. 1a and 1b) [µM] | apoptosis of already preactivated T lymphocytes ([1]; drug added at day 5, annexin V/propidium iodide at day 10)
Sc1ncnc2nc[nH]c12 [6-MP, 6-mercaptopurine] | no apoptosis induction | induced apoptosis | no apoptosis | did not cause a further significant increase | significant increase | strongly suppressed | Downregulation | loss of ΔΨm |  | 
Cn1cnc([N+](=O)[O-])c1Sc1ncnc2nc[nH]c12 [azathioprine, Azathioprine] | no apoptosis induction | induced apoptosis | no apoptosis |  | significant increase | strongly suppressed | reduced | loss of ΔΨm | 5 | induced apoptosis
